Test results taken from patent US20210380596A1, “UPADACITINIB CRYSTAL FORM AND PREPARATION METHOD THEREFOR AND USE THEREOF” (CRYSTAL PHARMACEUTICAL (SUZHOU) CO., LTD., priority 2019, published 2021).
Converted amounts (≈) assume the structure as drawn. “And” between values parts separate entries of the source, which are not always exact repeats. Identical values can stand only once. “Also recorded” adds a separate entry of the source. Blank lines part the entries; values can stand above or below the molecule they belong to.

Legend:
[1] = Kinetic solubility of Form CSII (saturated solutions, HPLC); format: physicochemical
Description: The method parameters of kinetic solubility test in the present disclosure are as follows:
A certain amount of Form CSII was suspended into pH=7.4 PBS, pH=6.5 FaSSIF and pH=5.0 FeSSIF at 25° C. or 37° C. to obtain saturated solutions. After equilibration for 24 h, 30 h and 48 h, the suspensions were filtered to obtain saturated solutions, and concentration was determined by HPLC.

[2] = Particle size distribution (Mastersizer 3000, wet mode); format: physicochemical; conditions: Isopar G containing 0.2% lecithin
Description: Proton nuclear magnetic resonance (H NMR) spectrum data were collected from a Bruker Avance II DMX 400M HZ NMR spectrometer. 1-5 mg of sample was weighed and dissolved in 0.5 mL of deuterated dimethyl sulfoxide to obtain a solution with a concentration of 2-10 mg/mL. The particle size distribution data in the present disclosure were acquired by a Mastersizer 3000 laser particle size analyzer of Malvern. The test is carried out in wet mode with a Hydro MV dispersing device, and the dispersion medium is Isopar G. The method parameters of the laser particle size analyzer are as follows:
The mixtures were mixed thoroughly and transferred into the Hydro MV. The measurement was started when the shading rate is in an appropriate position.

[3] = Compressibility (tablet hardness and tensile strength); format: physicochemical; conditions: for Diameter / Thickness: 80 mg, Φ6 mm tooling, 10 kN, after 24 h, tablets 1-3; for Average tensile strength: mean of three tablets
Description: An ENERPAC manual tablet press was used for compression. […] Until complete elastic recovery, hardness (H) was tested with an intelligent tablet hardness tester. Diameter (D) and thickness (L) were tested with a caliper. Tensile strength of the powder was calculated with the following formula: T=2H/πDL. Under a certain force, the greater the tensile strength, the better the compressibility.

[4] = Stability of Form CSII drug substance on storage (XRPD, HPLC purity); format: physicochemical; conditions: for Chemical purity during storage: drug substance
Description: X-ray powder diffraction patterns in the present disclosure were acquired by a Bruker D2 PHASER or Bruker D8 Discover X-ray powder diffractometer. The parameters of the X-ray powder diffraction method of the present disclosure are as follows:
The method parameters for relative substances test in the present disclosure are as follows:
A certain amount of Form CSII sample was stored at different conditions of 4° C., 25° C./60% RH, 40° C./75% RH and 60° C./75% RH. Crystalline form was checked by XRPD before and after storage.

[5] = Mechanical stability (tableting at 10 kN, manual grinding; XRPD); format: physicochemical
Description: 30 mg of Form CSII was weighed into the dies of a Φ8 mm round tooling and tableted by ENERPAC manual tablet press with 10 kN pressure. Crystalline form before and after tableting were checked by XRPD. […] 10 mg of Form CSII was weighed into a mortar and ground manually for 5 min. The crystalline form before and after grinding were checked by XRPD.

[6] = Flowability (compressibility index / Carr index); format: physicochemical; conditions: for Bulk density (ρ0): 5-mL measuring cylinder, 500 mg; for Flowability: criteria of ICH Q4B Annex 13; for Tapped density (ρf): tapping times: 1250
Description: Compressibility index or Carr index is usually utilized to evaluate the flowability of powder and granules during the drug product process. Compressibility index test method is as follows: a certain amount of powder was added into a measuring cylinder and bulk volume was recorded. Then the powder was tapped to make it in the tightest state and the tapped volume was recorded. The bulk density ρ0 and tapped density pf were calculated. The compressibility index was calculated according to c=(ρf−ρ0)/ρf.
Equipment: ZS-2E tap density tester.
Parameter: 5-mL measuring cylinder, 500 mg, tapping times: 1250.

[7] = Stability of Form CSII in drug product (formulation process and storage); format: physicochemical; conditions: formulation and process of Tables 14 and 15
Description: Crystalline form before and after tableting were checked by XRPD.
The drug products of Form CSII were stored under 25° C./60% RH and 40° C./75% RH in closed dishes with 1 g of desiccant for 3 months to evaluate the stability of Form CSII in drug product.

[8] = Adhesiveness (material sticking to the punch); format: physicochemical; conditions: 30 mg, Φ8 mm tooling, 10 kN held 30 s
Description: The amount of material sticking to the punch was weighed. The compression was repeated twice and the average amount of material sticking to the punch during the compression were recorded.

[9] = FaSSIF, 37° C.; disclosed in WO2017066775A1; cited from earlier work
[10] = FaSSIF pH 6.5, thermodynamic from solid, pH=6.5 FaSSIF, 37° C.
[11] = FeSSIF pH 5.0, thermodynamic from solid, pH=5.0 FeSSIF, 37° C.
[12] = PBS pH 7.4, aqueous buffer, thermodynamic from solid, pH=7.4 PBS, 25° C.
[13] = 25° C./60% RH, closed, 3 months
[14] = 40° C./75% RH, closed, 3 months
[15] = listed as Form C in WO2017066775A1

solubility at 24 h [1, 10]: 740 µg/mL (≈ 1950 µM) | solubility at 30 h [1, 10]: 760 µg/mL (≈ 2000 µM) | solubility at 48 h [1, 10]: 830 µg/mL (≈ 2180 µM) | solubility at 24 h [1, 11]: 1400 µg/mL (≈ 3680 µM) | solubility at 30 h [1, 11]: 1400 µg/mL (≈ 3680 µM) | solubility at 48 h [1, 11]: 1500 µg/mL (≈ 3940 µM) | solubility at 24 h [1, 12]: 730 µg/mL (≈ 1920 µM) | solubility at 30 h [1, 12]: 740 µg/mL (≈ 1950 µM) | solubility at 48 h [1, 12]: 720 µg/mL (≈ 1890 µM) | Solubility compared with Form C ([1]; pH=7.4 PBS, FaSSIF and FeSSIF): higher | Particle size distribution [2]: uniform | Diameter [3]: 6.05 mm and 6.04 mm and 6.03 mm | Thickness [3]: 2.35 mm and 2.16 mm and 2.12 mm | Average tensile strength [3]: 0.88 MPa | Time kept stable (crystalline state unchanged) ([4]; 4° C.): at least 3 months | Purity ([4]; 4° C., closed, 3 months): 99.41% | Solid form ([4]; 4° C., closed, 3 months): Form CSII | Purity [4, 13]: 99.42% | Solid form [4, 13]: Form CSII | Purity ([4]; 25° C./60% RH, open, 3 months): 99.43% | Solid form ([4]; 25° C./60% RH, open, 3 months): Form CSII | Purity [4, 14]: 99.42% | Solid form [4, 14]: Form CSII | Purity ([4]; 40° C./75% RH, open, 3 months): 99.44% | Solid form ([4]; 40° C./75% RH, open, 3 months): Form CSII | Purity ([4]; 60° C./75% RH, closed, 1 month): 99.43% | Solid form ([4]; 60° C./75% RH, closed, 1 month): Form CSII | Purity ([4]; 60° C./75% RH, open, 1 month): 99.48% | Solid form ([4]; 60° C./75% RH, open, 1 month): Form CSII | Purity ([4]; Initial): 99.35% | Solid form ([4]; Initial): Form CSII | Chemical purity during storage ([4]; 25° C./60% RH): above 99% | Chemical purity during storage ([4]; 40° C./75% RH and 60° C./75% RH): above 99% | Crystallinity after tableting ([5]; 10 kN pressure): remained basically unchanged | Crystalline state after tableting ([5]; 10 kN pressure, Φ8 mm round tooling): does not change | Crystallinity after grinding ([5]; ground manually for 5 min): remained basically unchanged | Bulk density (ρ0) [6]: 0.3295 g/mL | Flowability [6]: Excellent (≤10) | Tapped density (ρf) [6]: 0.3548 g/mL | Crystalline form in the formulation process (before and after tableting, XRPD) [7]: stable | Average amount of material sticking to the punch [8]: 0.16 mg
SMILES: CC[C@@H]1CN(C(=O)NCC(F)(F)F)C[C@@H]1c1cnc2cnc3[nH]ccc3n12 [Form CSII, (3S,4R)-3-ethyl-4-(3H-imidazo[1,2-a]pyrrolo [2,3-e]pyrazin-8-yl)-N-(2,2,2-trifluoroethyl) pyrrolidine-1-carboxamide]
Crystalline state after grinding ([5]; ground manually for 5 min): does not change; also recorded: doesn't change

Diameter [3, 15]: 6.00 mm and 6.01 mm | Thickness [3, 15]: 2.14 mm and 2.18 mm and 2.07 mm | Average tensile strength [3, 15]: 0.69 MPa | Bulk density (ρ0) [6, 15]: 0.3611 g/mL | Flowability [6, 15]: Very poor (32-37) | Tapped density (ρf) [6, 15]: 0.5618 g/mL | Average amount of material sticking to the punch [8, 15]: 0.21 mg
SMILES: CC[C@@H]1CN(C(=O)NCC(F)(F)F)C[C@@H]1c1cnc2cnc3[nH]ccc3n12 [Form C, (3S,4R)-3-ethyl-4-(3H-imidazo[1,2-a]pyrrolo [2,3-e]pyrazin-8-yl)-N-(2,2,2-trifluoroethyl) pyrrolidine-1-carboxamide, reference compound]
Solubility [9]: 220 µg/mL (≈ 578 µM)
